# Measured values from the supplement of paper PMC11208160.
# Experiment: recombinant barcode read abundance after kanamycin selection (control-corrected) (log10(CPM+1)); higher = more efficient recombination; sequences stand for … in AGTGCAGAGAAAATCGGCCAGTTTTCTCTGCCTGCAGTCCGCATGCCGT…AGATTTATGCAGCGGACTGCCTTTCTCCCAAAGTGATAAACCGGACAGTATCATGGACCGGTTTTCCCGGTAATCCGTATTTGCAAGGTTGGTTTCACT; site = the 11-nt target
# Method in brief: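 In a pooled screen in E. coli, targets were paired with target-binding loops of the IS621 bridge RNA. Each oligo carried a promoter, a target, a barcode and the first 104 bridge RNA bases driven by J23119, and was Gibson-cloned into a vector holding the remaining 73 bp and a T7-inducible recombinase before co-electroporation with a donor plasmid. Duplicate platings went onto chloramphenicol/ampicillin LB agar as the control or onto chloramphenicol/ampicillin/kanamycin with 0.1 mM IPTG. Recombination efficiency is the averaged, control-corrected count per million of barcodes at recombinant junctions, given as log10(CPM+1).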
# 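Note: IS621 recombinase and bridge RNA in Escherichia coli cells.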
row,Sequence,recombinant barcode read abundance (log10)
1,GACTCTCCTTGGGTTCTAACCTGTTGCTG (site GACTCTCCTCA),0.146
2,GACTCTCCTTGGGTTCTAACCTGTTGCTG (site GACTCTCCTCT),0.0367
3,GACTGAGCTTGGGTTCTAACCTGTTGCGT (site GACTGAGCTAC),2.58
4,GACTGAGCTTGGGTTCTAACCTGTTGCGT (site GGCTGAGCTAG),0.236
5,GACTGCCCTTGGGTTCTAACCTGTTGCGG (site GACTGCCCTCC),1.54
6,GACTGCCCTTGGGTTCTAACCTGTTGCGG (site GGCGGCCCTCC),0.137
7,GACTTACCTTGGGTTCTAACCTGTTGCAT (site GACTTACCTAT),1.18
8,GACTTACCTTGGGTTCTAACCTGTTGCAT (site GACTTCCCTAT),0.216
9,GACTTACCTTGGGTTCTAACCTGTTGCAT (site GACTTGCCTAT),0.135
10,GACTTACCTTGGGTTCTAACCTGTTGCAT (site GACTTTCCTAT),0.124
11,GACTTCCCTTGGGTTCTAACCTGTTGCAT (site GACTTACCTAT),0.352
12,GACTTCCCTTGGGTTCTAACCTGTTGCAT (site GACTTCCCTAT),1.45
13,GACTTCCCTTGGGTTCTAACCTGTTGCAT (site GACTTGCCTAT),0.0893
14,GACTTCCCTTGGGTTCTAACCTGTTGCAT (site GACTTTCCTAT),0.0857
15,GACTTGCCTTGGGTTCTAACCTGTTGCCT (site GACTTGACTAG),0.023
16,GACTTGCCTTGGGTTCTAACCTGTTGCCT (site GACTTGCCTAG),0.816
17,GACTTGCCTTGGGTTCTAACCTGTTGCCT (site GACTTGGCTAG),0.394
18,GACTTGCCTTGGGTTCTAACCTGTTGCCT (site GACTTGTCTAG),0.217
19,GACTTGTCTTGGGTTCTAACCTGTTGCGG (site GACTCATCTCC),0
20,GACTTGTCTTGGGTTCTAACCTGTTGCGG (site GACTTGTCTCC),1.59
21,GACTTTACTTGGGTTCTAACCTGTTGCCT (site GACGTTGCTAG),0.00775
22,GACTTTACTTGGGTTCTAACCTGTTGCCT (site GACTTTACTAG),0.0133
23,GAGAGTACTTGGGTTCTAACCTGTTGCAT (site GAGAGTACTAT),0.982
24,GAGAGTACTTGGGTTCTAACCTGTTGCAT (site GAGCGTACTAT),0.16
25,GAGAGTACTTGGGTTCTAACCTGTTGCAT (site GAGGGTACTAT),0.654
26,GAGAGTACTTGGGTTCTAACCTGTTGCAT (site GAGTGTACTAT),0.0293

row,Sequence,recombinant barcode read abundance (log10)
1,GAGATCCCTTGGGTTCTAACCTGTTGCCT (site GAGATCCCTAG),2.03
2,GAGATCCCTTGGGTTCTAACCTGTTGCCT (site GTGATCCCTAG),0.422
3,GAGCCTCCTTGGGTTCTAACCTGTTGCAT (site ACCAGGACTCG),0.136
4,GAGCCTCCTTGGGTTCTAACCTGTTGCAT (site GAGCCTCCTAT),1.81
5,GAGCCTTCTTGGGTTCTAACCTGTTGCAG (site AAGCCTTCTCA),0.0383
6,GAGCCTTCTTGGGTTCTAACCTGTTGCAG (site GAGCCTTCTCT),1.46
7,GAGCGAGCTTGGGTTCTAACCTGTTGCAG (site GAGCGAGCTCA),0.578
8,GAGCGAGCTTGGGTTCTAACCTGTTGCAG (site GAGCGAGCTCC),0.322
9,GAGCGAGCTTGGGTTCTAACCTGTTGCAG (site GAGCGAGCTCG),0.175
10,GAGCGAGCTTGGGTTCTAACCTGTTGCAG (site GAGCGAGCTCT),1.46
11,GAGCGAGCTTGGGTTCTAACCTGTTGCAT (site GAGAGAGCTAT),0.0856
12,GAGCGAGCTTGGGTTCTAACCTGTTGCAT (site GAGCGAGCTAT),1.94
13,GAGCGAGCTTGGGTTCTAACCTGTTGCAT (site GAGGGAGCTAT),0.0637
14,GAGCGAGCTTGGGTTCTAACCTGTTGCAT (site GAGTGAGCTAT),0.735
15,GAGCGCACTTGGGTTCTAACCTGTTGCAG (site GAGCGCACTCC),0.27
16,GAGCGCACTTGGGTTCTAACCTGTTGCAG (site GAGCGCACTCT),1.7
17,GAGCGCTCTTGGGTTCTAACCTGTTGCTT (site GAGCGCTCTAA),1.22
18,GAGCGCTCTTGGGTTCTAACCTGTTGCTT (site GAGCGCTCTCA),0.0723
19,GAGCGCTCTTGGGTTCTAACCTGTTGCTT (site GAGCGCTCTGA),0.088
20,GAGCGCTCTTGGGTTCTAACCTGTTGCTT (site GAGCGCTCTTA),0.269
21,GAGCGGACTTGGGTTCTAACCTGTTGCCT (site GAGCAGACTAG),0.698
22,GAGCGGACTTGGGTTCTAACCTGTTGCCT (site GAGCCGACTAG),0.388
23,GAGCGGACTTGGGTTCTAACCTGTTGCCT (site GAGCGGACTAG),1.68
24,GAGCGGACTTGGGTTCTAACCTGTTGCCT (site GAGCTGACTAG),0.129
25,GAGCTACCTTGGGTTCTAACCTGTTGCCA (site GAGCTACCTAG),0.796
26,GAGCTACCTTGGGTTCTAACCTGTTGCCA (site GAGCTACCTCG),0.213

row,Sequence,recombinant barcode read abundance (log10)
1,GAGCTACCTTGGGTTCTAACCTGTTGCCA (site GAGCTACCTGG),0.13
2,GAGCTACCTTGGGTTCTAACCTGTTGCCA (site GAGCTACCTTG),1.11
3,GAGCTACCTTGGGTTCTAACCTGTTGCCG (site GAGCTACCTAG),0.837
4,GAGCTACCTTGGGTTCTAACCTGTTGCCG (site GAGCTACCTCG),1.11
5,GAGCTACCTTGGGTTCTAACCTGTTGCCG (site GAGCTACCTGG),0.0124
6,GAGCTACCTTGGGTTCTAACCTGTTGCCG (site GAGCTACCTTG),0.214
7,GAGCTCACTTGGGTTCTAACCTGTTGCCA (site GAGCACCCTTG),0.0579
8,GAGCTCACTTGGGTTCTAACCTGTTGCCA (site GAGCTCACTTG),0.514
9,GAGCTGACTTGGGTTCTAACCTGTTGCCT (site GAGCAGACTAG),0.182
10,GAGCTGACTTGGGTTCTAACCTGTTGCCT (site GAGCCGACTAG),0.488
11,GAGCTGACTTGGGTTCTAACCTGTTGCCT (site GAGCGGACTAG),0.0812
12,GAGCTGACTTGGGTTCTAACCTGTTGCCT (site GAGCTGACTAG),1.49
13,GAGCTTGCTTGGGTTCTAACCTGTTGCGA (site GAGCTTGCTTC),0.949
14,GAGCTTGCTTGGGTTCTAACCTGTTGCGA (site TGCGGGTCTAG),0.122
15,GAGGACTCTTGGGTTCTAACCTGTTGCCT (site GAGGACTCTAG),3
16,GAGGACTCTTGGGTTCTAACCTGTTGCCT (site GAGGACTCTCG),0.0247
17,GAGGACTCTTGGGTTCTAACCTGTTGCCT (site GAGGACTCTGG),1.29
18,GAGGACTCTTGGGTTCTAACCTGTTGCCT (site GAGGACTCTTG),0.0974
19,GAGGCTCCTTGGGTTCTAACCTGTTGCGT (site GAAGCTCCTAC),1.54
20,GAGGCTCCTTGGGTTCTAACCTGTTGCGT (site GAGGCTCCTAC),2.97
21,GAGGGCCCTTGGGTTCTAACCTGTTGCAG (site GAGGGCCCTCA),2.07
22,GAGGGCCCTTGGGTTCTAACCTGTTGCAG (site GAGGGCCCTCC),0.926
23,GAGGGCCCTTGGGTTCTAACCTGTTGCAG (site GAGGGCCCTCG),1.4
24,GAGGGCCCTTGGGTTCTAACCTGTTGCAG (site GAGGGCCCTCT),2.88
25,GAGGGCCCTTGGGTTCTAACCTGTTGCCT (site AAGGGCCCTAG),1.38
